Measurements from patent US20260231939A1, “ARTHROPOD CONTROL COMPOSITIONS” (Firmenich SA, priority 2022, published 2026).
Read-outs that look alike come from different tables or passages of the source.

System: Aedes aegypti
Assay: Warm Body assay, mosquito landings on the baited warm body
Assay type: in vivo
Settings: for pest or weed control at 16 µg/mL / pest or weed control at 400 µg/mL / pest or weed control at 10000 µg/mL: Aedes aegypti, read-out: Percentage of repellence of mosquitoes landing on the warm body
Procedure: The controlling effect according to the present invention was assessed using an adapted Warm Body assay as defined in Kröber T, Kessler S, Frei J, Bourquin M, Guerin P M. 2010. J Am Mosq Control Assoc. 26:381-386. In this in-vitro assay the number of mosquito landing on a warm body, simulating an attractive host treated with the tested stimuli, was measured in order to assess the repellence effect.
The published protocol has been adapted as the switch from Anopheles gambiae to Ae. aegypti led to a decrease of mosquitoes placed in the tested cage due to the size difference (i.e. 30 mosquitoes instead of 50) and to an increase of lighting since Ae. aegypti is a diurnal mosquitoes (i.e. 150 lux instead of 4 lux).
On the sandblasted glass Petri dish covering the warm body (28.3 cm^2), 100 μL of the compounds diluted at different concentrations in ethanol was applied. The number of mosquito landing on the warm body was counted for each stimulus. Number of landings on pure ethanol (solvent) control treatment was used to normalize the data and calculate the percentage of repellence.

[1] = more complex lactones (types A, B, C), 0.016 mg/mL
[2] = more complex lactones (types A, B, C), 0.4 mg/mL
[3] = more complex lactones (types A, B, C), 10 mg/mL
[4] = γ-lactones, 0.016 mg/mL in ethanol
[5] = γ-lactones, 0.4 mg/mL in ethanol
[6] = γ-lactones, 10 mg/mL in ethanol

SMILES: CCC=C1OC(=O)c2ccccc21 [3-propylidene-2-benzofuran-1-one]
- pest or weed control at 16 µg/mL [1]: 83%
- pest or weed control at 400 µg/mL [2]: 93%
- pest or weed control at 10000 µg/mL [3]: 86%

SMILES: CCCCCCCC1=COC(=O)CC1 [5-heptyl-3,4-dihydro-2H-pyran-2-one]
- pest or weed control at 16 µg/mL [1]: 0%
- pest or weed control at 400 µg/mL [2]: 95%
- pest or weed control at 10000 µg/mL [3]: 100%

SMILES: CC/C=C\CCCCC1CCC(=O)O1 (stereo not shown) [5-[(Z)-oct-5-enyl]oxolan-2-one]
- pest or weed control at 16 µg/mL [4]: 0%
- pest or weed control at 400 µg/mL [5]: 75%
- pest or weed control at 10000 µg/mL [6]: 100%

SMILES: CCCCCC=CCC1CCC(=O)O1 (stereo not shown) [5-oct-2-enyloxolan-2-one]
- pest or weed control at 16 µg/mL [4]: 85%
- pest or weed control at 400 µg/mL [5]: 100%
- pest or weed control at 10000 µg/mL [6]: 96%

SMILES: CCC=CCCC1(C)CCC(=O)O1 (stereo not shown) [5-hex-3-enyl-5-methyloxolan-2-one]
- pest or weed control at 16 µg/mL [4]: 39%
- pest or weed control at 400 µg/mL [5]: 79%
- pest or weed control at 10000 µg/mL [6]: 96%

SMILES: C=CCCC1CCC(=O)O1 (stereo not shown) [5-but-3-enyloxolan-2-one]
- pest or weed control at 16 µg/mL [4]: 57%
- pest or weed control at 400 µg/mL [5]: 75%
- pest or weed control at 10000 µg/mL [6]: 100%

SMILES: CC1(C)CC=CC2(C)OC(=O)CC12 (stereo not shown) [4,4,7a-trimethyl-3a,5-dihydro-3H-1-benzofuran-2-one]
- pest or weed control at 16 µg/mL [1]: 83%
- pest or weed control at 400 µg/mL [2]: 92%
- pest or weed control at 10000 µg/mL [3]: 100%

SMILES: CC1CCC(=O)O1 (stereo not shown) [5-methyloxolan-2-one]
- pest or weed control at 16 µg/mL [4]: 0%
- pest or weed control at 400 µg/mL [5]: 43%
- pest or weed control at 10000 µg/mL [6]: 2%

SMILES: CCCC=CC1CCC(=O)O1 (stereo not shown) [5-pent-1-enyloxolan-2-one]
- pest or weed control at 16 µg/mL [4]: 52%
- pest or weed control at 400 µg/mL [5]: 79%
- pest or weed control at 10000 µg/mL [6]: 100%

SMILES: CCC1CCC(=O)O1 (stereo not shown) [5-ethyloxolan-2-one]
- pest or weed control at 16 µg/mL [4]: 0%
- pest or weed control at 400 µg/mL [5]: 16%
- pest or weed control at 10000 µg/mL [6]: 74%

SMILES: C=CC=CC1C(=O)OC1CCCCC (stereo not shown) [3-buta-1,3-dienyl-4-pentyloxetan-2-one]
- pest or weed control at 400 µg/mL (β- and ε-lactones, 0.4 mg/mL): > 80%

SMILES: CCCCCCC1=COC(=O)CC1 [5-hexyl-3,4-dihydro-2H-pyran-2-one]
- pest or weed control at 16 µg/mL [1]: 11%
- pest or weed control at 400 µg/mL [2]: 75%
- pest or weed control at 10000 µg/mL [3]: 98%

SMILES: CCCCC=CCCC1CCC(=O)O1 (stereo not shown) [5-oct-3-enyloxolan-2-one]
- pest or weed control at 16 µg/mL [4]: 31%
- pest or weed control at 400 µg/mL [5]: 76%
- pest or weed control at 10000 µg/mL [6]: 92%

SMILES: CCCCCCCCC1CCC(=O)O1 (stereo not shown) [5-octyloxolan-2-one]
- pest or weed control at 16 µg/mL [4]: 12%
- pest or weed control at 400 µg/mL [5]: 52%
- pest or weed control at 10000 µg/mL [6]: 45%

SMILES: C=CCCCC1CCCCC(=O)O1 (stereo not shown) [7-pent-4-enyloxepan-2-one]
- pest or weed control at 400 µg/mL (β- and ε-lactones, 0.4 mg/mL): 95%
- pest or weed control at 10000 µg/mL (β- and ε-lactones, 10 mg/mL): 100%
- Percentage of repellence of mosquitoes landing on the warm body (β- and ε-lactones, 0.4 mg/mL): 95%

SMILES: CCC=CC[C@H]1CCCC(=O)O1 [(6R)-6-pent-2-enyloxan-2-one]
- pest or weed control at 16 µg/mL (δ-lactones, 0.016 mg/mL): 78%
- pest or weed control at 400 µg/mL (δ-lactones, 0.4 mg/mL): 100%
- pest or weed control at 10000 µg/mL (δ-lactones, 10 mg/mL): 98%

SMILES: CCCCCCC1(C)CCC(=O)O1 (stereo not shown) [5-hexyl-5-methyloxolan-2-one]
- pest or weed control at 16 µg/mL [1]: 43%
- pest or weed control at 400 µg/mL [2]: 75%
- pest or weed control at 10000 µg/mL [3]: 97%

SMILES: CC/C=C/CCCCC1CCC(=O)O1 (stereo not shown) [5-[(E)-oct-5-enyl]oxolan-2-one]
- pest or weed control at 16 µg/mL [4]: 0%
- pest or weed control at 400 µg/mL [5]: 87%
- pest or weed control at 10000 µg/mL [6]: 100%

SMILES: CCCCCC1OC(=O)CC1C (stereo not shown) [4-methyl-5-pentyloxolan-2-one]
- pest or weed control at 16 µg/mL [1]: 36%
- pest or weed control at 400 µg/mL [2]: 72%
- pest or weed control at 10000 µg/mL [3]: 100%

SMILES: CCC#CCCC1CCCC(=O)O1 (stereo not shown) [6-hex-3-ynyloxan-2-one]
- pest or weed control at 16 µg/mL (δ-lactones, 0.016 mg/mL): 0%
- pest or weed control at 400 µg/mL (δ-lactones, 0.4 mg/mL): 80%
- pest or weed control at 10000 µg/mL (δ-lactones, 10 mg/mL): 97%

SMILES: C=C/C=C/C1C(=O)OC1CCCCC (stereo not shown) [(E)-3-buta-1,3-dienyl-4-pentyloxetan-2-one]
- pest or weed control at 16 µg/mL (β- and ε-lactones, 0.016 mg/mL): 71%
- pest or weed control at 400 µg/mL (β- and ε-lactones, 0.4 mg/mL): 82%
- pest or weed control at 10000 µg/mL (β- and ε-lactones, 10 mg/mL): 100%

SMILES: CC=CCCCCCC1CCC(=O)O1 (stereo not shown) [5-oct-6-enyloxolan-2-one]
- pest or weed control at 16 µg/mL [4]: 12%
- pest or weed control at 400 µg/mL [5]: 78%
- pest or weed control at 10000 µg/mL [6]: 100%

SMILES: CCC=CCCCCCCC1CCC(=O)O1 (stereo not shown) [5-dec-7-enyloxolan-2-one]
- pest or weed control at 16 µg/mL [4]: 17%
- pest or weed control at 400 µg/mL [5]: 47%
- pest or weed control at 10000 µg/mL [6]: 85%
